According to patent publication US20260283966A1, “PROTEIN PARTICLES AND METHODS OF MAKING AND USING THE SAME” (Dairy Management Inc., priority 2023, published 2026):

Assay: ABTS radical scavenging capacity
Format: biochemical
Details: 0.05 mg mL^−1, all treatments
Method: ABTS radical scavenging capacity was measured according to the previously published protocol with some modifications (Dong et al., 2016). The modifications are as follow: samples were dissolved in phosphate buffer (pH 7.4) to a concentration of 0.05 mg mL^−1. Next, a 200 μl aliquot of the sample was mixed with 20 μl of the ABTS working solution and the mixture was stored in dark for 20 min at room temperature (~25° C.).

N[C@@H](Cc1c[nH]c2ccccc12)C(=O)O [Trp, L-Tryptophan]
relative ABTS radical scavenging capacity: strong relative ABTS radical scavenging capacity and was not influenced by treatments
